Measured values published in PMC4813177, “Molecular Recognition of the Catalytic Zinc(II) Ion in MMP-13: Structure-Based Evolution of an Allosteric Inhibitor to Dual Binding Mode Inhibitors with Improved Lipophilic Ligand Efficiencies” (International Journal of Molecular Sciences, 2016).

Biological target: T1, MMP-13 (Homo sapiens, UniProt P45452)
T1 construct: purchased Reaction Biology Corporation, Malvern, PA, USA (contract assay service)
Assay: MMP-13 in vitro inhibition assay (FRET peptide substrate)
Assay type: biochemical
Conditions: for LE (Ligand Efficiency): 1.4(−logIC50)/N, N = number of non-hydrogen atoms; for LLE (lipophilic ligand efficiency): LLE = pIC50 - clogP; for remaining activity at 10 µM: at 10 μM inhibitor concentration, read-out: % Activity (remaining enzyme activity); for remaining activity at 10 µM / IC50: triplicate; for IC50: 10 concentrations starting at 10 μM
Protocol: Consecutively the synthesized compounds were tested for their inhibition activity against MMP-13 in in vitro assays. The values are averaged over triplicate determinations (Table 1).
The substrate used for the determinations was the (5-FAM/QXLTM) FRET peptide. The buffer consisted of 50 mM HEPES at pH 7.5 with 10 mM CaCl2 and 0.01% Brij-35. 0.1 mg/mL BSA was added before use. As a control inhibitor GM6001 was used.

Row | LE (Ligand Efficiency) | LLE (lipophilic ligand efficiency) | remaining activity at 10 µM | IC50 | SMILES
1 | 0.22 | 2.91 | 11.2 ± 0.3% | 896 ± 60 nM | CS(=O)(=O)NC(=O)CCCOc1cccc(CC(=O)Nc2ccc3c(c2)C(=O)N(Cc2ccccc2)C3=O)c1 [Compound 18, 4-(3-{[(2-benzyl-1,3-dioxo-2,3-dihydro-1H-isoindol-5-yl)carbamoyl]methyl}phenoxy)-N-methanesulfonylbutanamide]
2 | 0.24 | 2.16 | 4.6 ± 0.6% | 777 ± 50 nM | O=C(O)CCCOc1cccc(CC(=O)Nc2ccc3c(c2)C(=O)N(Cc2ccccc2)C3=O)c1 [Compound 15, 4-(3-{[(2-benzyl-1,3-dioxo-2,3-dihydro-1H-isoindol-5-yl)carbamoyl]methyl}phenoxy)butanoic acid]
3 |  |  | 15.4 ± 0.3% |  | O=C(O)CCOc1cccc(CC(=O)Nc2ccc3c(c2)C(=O)N(Cc2ccccc2)C3=O)c1 [Compound 14, 3-(3-{[(2-benzyl-1,3-dioxo-2,3-dihydro-1H-isoindol-5-yl)carbamoyl]methyl}phenoxy)propanoic acid]
4 |  |  | 30.5 ± 0.8% |  | CS(=O)(=O)NC(=O)CCOc1cccc(CC(=O)Nc2ccc3c(c2)C(=O)N(Cc2ccccc2)C3=O)c1 [Compound 17, 3-(3-{[(2-benzyl-1,3-dioxo-2,3-dihydro-1H-isoindol-5-yl)carbamoyl]methyl}phenoxy)-N-methanesulfonylpropanamide]
5 | 0.25 | 1.70 | 2.6 ± 0.3% | 280 ± 40 nM | O=C(O)CCCCCOc1cccc(CC(=O)Nc2ccc3c(c2)C(=O)N(Cc2ccccc2)C3=O)c1 [Compound 16, 6-(3-{[(2-benzyl-1,3-dioxo-2,3-dihydro-1H-isoindol-5-yl)carbamoyl]methyl}phenoxy)hexanoic acid]

Continued, compound first:

Row | SMILES | LE (Ligand Efficiency) | LLE (lipophilic ligand efficiency) | remaining activity at 10 µM | IC50
6 | O=C(Cc1cccc(OCCCCO)c1)Nc1ccc2c(c1)C(=O)N(Cc1ccccc1)C2=O [Compound 12, N-(2-benzyl-1,3-dioxo-2,3-dihydro-1H-isoindol-5-yl)-2-[3-(4-hydroxybutoxy)phenyl]acetamide] | 0.26 | 2.22 | 7.6 ± 0.5% | 454 ± 200 nM
7 | CNC(=O)CCCCOc1cccc(CC(=O)Nc2ccc3c(c2)C(=O)N(Cc2ccccc2)C3=O)c1 [Compound 5, 5-(3-{[(2-benzyl-1,3-dioxo-2,3-dihydro-1H-isoindol-5-yl)carbamoyl]methyl}phenoxy)-N-methylpentanamide] | 0.25 | 2.45 | 6.7 ± 0.5% | 328 ± 50 nM
8 | O=C(O)CCCCOc1cccc(CC(=O)Nc2ccc3c(c2)C(=O)N(Cc2ccccc2)C3=O)c1 [Compound 3, 5-(3-{[(2-benzyl-1,3-dioxo-2,3-dihydro-1H-isoindol-5-yl)carbamoyl]methyl}phenoxy)pentanoic acid] | 0.27 | 2.46 | 2.4 ± 0.1% | 134 ± 40 nM
9 | O=C(Cc1cccc(OCCCCCO)c1)Nc1ccc2c(c1)C(=O)N(Cc1ccccc1)C2=O [Compound 2, N-(2-benzyl-1,3-dioxo-2,3-dihydro-1H-isoindol-5-yl)-2-{3-[(5-hydroxypentyl)oxy]phenyl}acetamide] | 0.24 | 1.53 | 9.1 ± 0.9% | 822 ± 210 nM
10 | O=C(Cc1cccc(OCCCCCCO)c1)Nc1ccc2c(c1)C(=O)N(Cc1ccccc1)C2=O [Compound 13, N-(2-benzyl-1,3-dioxo-2,3-dihydro-1H-isoindol-5-yl)-2-{3-[(6-hydroxyhexyl)oxy]phenyl}acetamide] |  |  | 33 ± 2.9% | 
11 | O=C(Cc1cccc(OCCCO)c1)Nc1ccc2c(c1)C(=O)N(Cc1ccccc1)C2=O [Compound 11, N-(2-benzyl-1,3-dioxo-2,3-dihydro-1H-isoindol-5-yl)-2-[3-(3-hydroxypropoxy)phenyl]acetamide] | 0.26 | 2.55 | 7.9 ± 0.4% | 586 ± 130 nM
12 | CS(=O)(=O)NC(=O)CCCCOc1cccc(CC(=O)Nc2ccc3c(c2)C(=O)N(Cc2ccccc2)C3=O)c1 [Compound 4, 5-(3-{[(2-benzyl-1,3-dioxo-2,3-dihydro-1H-isoindol-5-yl)carbamoyl]methyl}phenoxy)-N-methanesulfonylpentanamide] | 0.21 | 2.53 | 13.8 ± 1.4% | 767 ± 80 nM
